Assay results taken from US9914711B2 (priority 2013, dated 2018).

Tested on: C. violaceum CV026
Test: Preliminary screening of bacterial quorum sensing agonistic / inhibitory activity on LB plate (purple stain / white circle)
Type: cell-based
Conditions: 1 μl of 0.065M compound spotted on plate; inhibitory screen with inducer C6-HSL; 30° C., 16-18 h
Description: 1.1 Preparation work: different compounds to be tested (Compounds 1-40 prepared in Example 1-40) were weighted and then were dissolved in 200 μl DMSO (dimethyl sulfoxide) to prepare a solution at a concentration of 0.065M. 5.0 mg inducer, N-hexanoyl homoserine lactone (C6-HSL, purchased from Sigma Company), was weighted and was dissolved in 200 μl DMSO (at a concentration of 0.125M), and the compounds and the inducer were stored at 4 for further use. C. violaceum CV026 (donated by Professor McLean J C from Texas State University) in LB culture medium (LB culture medium consisting of 1% (percentage by mass) tryptone, 0.5% (percentage by mass) yeast extract, 1% (percentage by mass) NaCl and water) was cultured under shaking in a shaker at 30, 200 rpm to get the culture medium for further use.
1.2 Method for preliminary screening of compounds having agonistic activity: 400 μl C. violaceum CV026 (at a bacterial concentration of 1×10^8/ml) was added to 5 ml melted semi-solid LB culture medium, and was mixed well; the mixed culture medium was poured into a solid LB plate; when the mixed culture medium was solidified on the plate, lattice was made thereon; 1 μl of the dissolved compounds to be tested (Compounds 1-40 in Examples 1-40, at a concentration of 0.065M) was spotted on the plate; when the compounds on the plate was dried in air, the plate was put in a 30° C. oven upside down and was cultured for a period of 16-18 h. If the compound to be tested has an agonistic effect on C. violaceum CV026 on the LB plate, purple stain will be induced on the LB plate. The agonistic activity of a compound is determined depending on whether purple stain is induced for C. violaceum CV026 on LB plate as well as the purple depth.
1.3 Method for preliminary screening of compounds having inhibitory activity: the inducer C6-HSL was diluted gradiently to 1000 times by means of 2-fold dilution; 15 μl diluted inducer and 400 μl C. violaceum CV026 in exponential phase (at a bacterial concentration of 1×10^8/ml) were mixed well and then were added to a 5 ml melted semi-solid LB culture medium; the mixture of inducer, C. violaceum, and semi-solid LB was poured onto a solid LB plate; when the mixture was solidified on the plate, lattice was made thereon: 1 μl of the dissolved compounds to be tested (Compounds 1-40 in Examples 1-40, at a concentration of 0.065M) was spotted on the plate; when the compounds on the plate were dried in air, the plate was put in a 30° C. oven upside down and was cultured for a period of 16-18 h. If the compound to be tested has an inhibitory effect on C. violaceum CV026 on the LB plate, white circle will appear on the LB plate. The inhibitory activity of a compound is preliminary determined depending on the size of the white circle appeared after C. violaceum CV026 was inhibited on LB plate.
It is found after preliminary screening that 22 compounds according to the invention have bacterial quorum sensing regulatory activity, and the screening result was shown in Table 1.
In the case of `Cc1ccc(CCC(=O)NN2CCOC2=O)cc1` [Compound 38], the “Regulatory activity (bacterial quorum sensing regulatory activity)” value (shortened to “Regulatory activity”) is reported as “+”. For `O=C(CCCc1ccccc1)NN1CCOC1=O` [Compound 40, N-(2-oxo-oxazolidin-3-yl)-4-phenyl butanamide], the “Regulatory activity” value was “+”. With `O=C(Cc1ccc(F)cc1)NN1CCOC1=O` [Compound 31, 2-(4-fluorophenyl)-N-(2-oxo-oxazolidin-3-yl)acetamide] the “Regulatory activity” value was “+”. For `CC(C)(C)c1ccc(C(=O)NN2CCOC2=O)cc1` [Compound 2, 4-tert-butyl-N-(2-oxo-oxazolidin-3-yl)benzamide], the “Regulatory activity” value was “−”. In the case of `O=C(NN1CCOC1=O)c1cccc(Cl)c1` [Compound 5, 3-chloro-N-(2-oxo-oxazolidin-3-yl)benzamide], the “Regulatory activity” value is reported as “+”. For `CCCCCCCNC(=O)NN1CCOC1=O` [Compound 18, 1-(2-oxo-oxazolidin-3-yl)-3-heptyl urea], the “Regulatory activity” value was “−”. For `O=C(CCc1ccc(Cl)cc1)NN1CCOC1=O` [Compound 39], the “Regulatory activity” value was “+”. For `O=C(NN1CCOC1=O)c1ccc(CCl)cc1` [Compound 3, 4-chloromethyl-N-(2-oxo-oxazolidin-3-yl)benzamide], the “Regulatory activity” value was “−”. In the case of `COc1ccc(CC(=O)NN2CCOC2=O)cc1` [Compound 32, 2-(4-methoxyphenyl)-N-(2-oxo-oxazolidin-3-yl)acetamide], the “Regulatory activity” value is reported as “+”. In the case of `O=C(NN1CCOC1=O)c1ccccc1Cl` [Compound 4, 2-chloro-N-(2-oxo-oxazolidin-3-yl)benzamide], the “Regulatory activity” value is reported as “±”. With `O=C(NN1CCOC1=O)c1ccc(F)cc1` [Compound 9, 4-fluoro-N-(2-oxo-oxazolidin-3-yl)benzamide] the “Regulatory activity” value was “+”. In the case of `O=C(Cc1ccc(Cl)cc1)NN1CCOC1=O` [Compound 34, 2-(4-chlorophenyl)-N-(2-oxo-oxazolidin-3-yl)acetamide], the “Regulatory activity” value is reported as “+”. With `Cc1ccc(CC(=O)NN2CCOC2=O)cc1` [Compound 35, 2-(4-tolyl)-N-(2-oxo-oxazolidin-3-yl)acetamide] the “Regulatory activity” value was “+”. For `O=C(Cc1ccc([N+](=O)[O-])cc1)NN1CCOC1=O` [Compound 33, 2-(4-nitrophenyl)-N-(2-oxo-oxazolidin-3-yl)acetamide], the “Regulatory activity” value was “+”. For `Cc1cccc(C(=O)NN2CCOC2=O)c1` [Compound 8, 3-methyl-N-(2-oxo-oxazolidin-3-yl)benzamide], the “Regulatory activity” value was “+”. In the case of `O=C(NN1CCOC1=O)c1ccccc1C(F)(F)F` [Compound 10, 2-trifluoromethyl-N-(2-oxo-oxazolidin-3-yl)benzamide], the “Regulatory activity” value is reported as “+”. For `O=C(CCc1ccccc1)NN1CCOC1=O` [Compound 37], the “Regulatory activity” value was “+”. In the case of `CCCCCCCCNC(=O)NN1CCOC1=O` [Compound 19, 1-(2-oxo-oxazolidin-3-yl)-3-octyl urea], the “Regulatory activity” value is reported as “−”. In the case of `O=C(CCc1ccc([N+](=O)[O-])cc1)NN1CCOC1=O` [Compound 36], the “Regulatory activity” value is reported as “+”.

Same assay, conditions: summary of the activity evaluation experiments
In the case of `CC(C)(C)c1ccc(C(=O)NN2CCOC2=O)cc1` [Compound 2, 4-tert-butyl-N-(2-oxo-oxazolidin-3-yl)benzamide], the “Effect on bacterial quorum sensing (summary in words)” value (shortened to “Effect on bacterial quorum sensing”) is reported as “inhibitory effect on bacterial quorum sensing”. In the case of `CCCCCCCNC(=O)NN1CCOC1=O` [Compound 18, 1-(2-oxo-oxazolidin-3-yl)-3-heptyl urea], the “Effect on bacterial quorum sensing” value is reported as “inhibitory effect on bacterial quorum sensing”. For `O=C(NN1CCOC1=O)c1ccc(CCl)cc1` [Compound 3, 4-chloromethyl-N-(2-oxo-oxazolidin-3-yl)benzamide], the “Effect on bacterial quorum sensing” value was “inhibitory effect on bacterial quorum sensing”. With `O=C(NN1CCOC1=O)c1ccccc1Cl` [Compound 4, 2-chloro-N-(2-oxo-oxazolidin-3-yl)benzamide] the “Effect on bacterial quorum sensing” value was “both an agonizing effect and an inhibitory effect”. For `CCCCCCCCNC(=O)NN1CCOC1=O` [Compound 19, 1-(2-oxo-oxazolidin-3-yl)-3-octyl urea], the “Effect on bacterial quorum sensing” value was “inhibitory effect on bacterial quorum sensing”.

Tested on: not given
Test: not given
Conditions: not given
In the case of `Cc1ccc(CCC(=O)NN2CCOC2=O)cc1` [Compound 38], the melting point is reported as 146 to 148 °C. With `O=C(Nc1ccc(OC(F)(F)F)cc1)NN1CCOC1=O` the melting point was 205 to 206 °C. With `O=C(CCCc1ccccc1)NN1CCOC1=O` [Compound 40, N-(2-oxo-oxazolidin-3-yl)-4-phenyl butanamide] the melting point was 104 to 107 °C. `O=C1OCCN1NC(=S)Nc1ccccc1` [Compound 27, 1-(2-oxo-oxazolidin-3-yl)phenylthiourea] showed a melting point of 191 to 193 °C. In the case of `O=C(Cc1ccc(F)cc1)NN1CCOC1=O` [Compound 31, 2-(4-fluorophenyl)-N-(2-oxo-oxazolidin-3-yl)acetamide], the melting point is reported as 131 to 134 °C. In the case of `O=C(Nc1ccc(Br)cc1)NN1CCOC1=O` [Compound 20, 1-(4-bromophenyl)-3-(2-oxo-oxazolidin-3-yl)urea], the melting point is reported as 212 to 215 °C. In the case of `CC(C)(C)c1ccc(C(=O)NN2CCOC2=O)cc1` [Compound 2, 4-tert-butyl-N-(2-oxo-oxazolidin-3-yl)benzamide], the melting point is reported as 187 to 189 °C. Compound `O=C(NN1CCOC1=O)c1cccc(Cl)c1` [Compound 5, 3-chloro-N-(2-oxo-oxazolidin-3-yl)benzamide] has a melting point of 151 to 152 °C. With `CCCCCNC(=O)NN1CCOC1=O` [Compound 16, 1-(2-oxo-oxazolidin-3-yl)-3-pentyl urea] the melting point was 83 to 86 °C. Work on `O=C1OCCN1NC(=S)Nc1ccc(F)cc1` [Compound 28, 1-(4-fluorophenyl)-3-(2-oxo-oxazolidin-3-yl)sulfourea] yielded a melting point of 190 to 191 °C. With `O=C(NN1CCOC1=O)c1cccc(F)c1` the melting point was 166 to 169 °C. Compound `CCCCCCNC(=O)NN1CCOC1=O` [Compound 17, 1-(2-oxo-oxazolidin-3-yl)-3-hexyl urea] has a melting point of 74 to 75 °C. In the case of `CCCCNC(=O)NN1CCOC1=O` [Compound 15, 1-(2-oxo-oxazolidin-3-yl)-3-butyl urea], the melting point is reported as 98 to 100 °C. Compound `O=C(NCCc1ccccc1)NN1CCOC1=O` [Compound 24, 1-(2-oxo-oxazolidin-3-yl)phenyl ethyl urea] has a melting point of 123 to 125 °C. With `CCCCCCCNC(=O)NN1CCOC1=O` [Compound 18, 1-(2-oxo-oxazolidin-3-yl)-3-heptyl urea] the melting point was 68 to 69 °C. For `O=C(CCc1ccc(Cl)cc1)NN1CCOC1=O` [Compound 39], the melting point was 134 to 136 °C. In the case of `O=C(NN1CCOC1=O)c1ccc(CCl)cc1` [Compound 3, 4-chloromethyl-N-(2-oxo-oxazolidin-3-yl)benzamide], the melting point is reported as 206 to 208 °C. `COc1ccc(CC(=O)NN2CCOC2=O)cc1` [Compound 32, 2-(4-methoxyphenyl)-N-(2-oxo-oxazolidin-3-yl)acetamide] showed a melting point of 90 to 92 °C. `O=C(NN1CCOC1=O)c1ccccc1Cl` [Compound 4, 2-chloro-N-(2-oxo-oxazolidin-3-yl)benzamide] showed a melting point of 166 to 168 °C. `O=C(NCc1ccccc1)NN1CCOC1=O` [Compound 23, 1-benzyl-3-(2-oxo-oxazolidin-3-yl)urea] gave a melting point of 160 to 161 °C. `Cc1cccc(NC(=O)NN2CCOC2=O)c1` showed a melting point of 191 to 192 °C. For `Cc1ccc(NC(=O)NN2CCOC2=O)cc1`, the melting point was 205 to 207 °C. With `O=C(Cc1ccc(Cl)cc1)NN1CCOC1=O` [Compound 34, 2-(4-chlorophenyl)-N-(2-oxo-oxazolidin-3-yl)acetamide] the melting point was 124 to 127 °C. `Cc1ccc(CC(=O)NN2CCOC2=O)cc1` [Compound 35, 2-(4-tolyl)-N-(2-oxo-oxazolidin-3-yl)acetamide] showed a melting point of 108 to 111 °C. `O=C(Cc1ccc([N+](=O)[O-])cc1)NN1CCOC1=O` [Compound 33, 2-(4-nitrophenyl)-N-(2-oxo-oxazolidin-3-yl)acetamide] showed a melting point of 180 to 183 °C. With `O=C(Nc1cccc(Br)c1)NN1CCOC1=O` the melting point was 197 to 199 °C. For `Cc1cccc(C(=O)NN2CCOC2=O)c1` [Compound 8, 3-methyl-N-(2-oxo-oxazolidin-3-yl)benzamide], the melting point was 148 to 150 °C. For `O=C(NC1CCCCC1)NN1CCOC1=O` [Compound 22, 1-cyclohexyl-3-(2-oxo-oxazolidin-3-yl)urea], the melting point was 203 to 205 °C. In the case of `O=C(NN1CCOC1=O)c1ccccc1C(F)(F)F` [Compound 10, 2-trifluoromethyl-N-(2-oxo-oxazolidin-3-yl)benzamide], the melting point is reported as 139 to 141 °C. With `O=C(NN1CCOC1=O)c1ccccc1F` [Compound 6, 2-fluoro-N-(2-oxo-oxazolidin-3-yl)benzamide] the melting point was 124 to 127 °C. `CCCCCCCCNC(=O)NN1CCOC1=O` [Compound 19, 1-(2-oxo-oxazolidin-3-yl)-3-octyl urea] gave a melting point of 64 to 65 °C. `O=C(CCc1ccc([N+](=O)[O-])cc1)NN1CCOC1=O` [Compound 36] showed a melting point of 143 to 145 °C. With `O=C(NN1CCOC1=O)c1ccc(F)cc1` [Compound 1, 4-fluoro-N-(2-oxo-oxazolidin-3-yl)benzamide] the melting point was 189 to 192 °C.
